Data as given in patent publication US20210322508A1, “PEPTIDES AND COMPOSITIONS FOR TARGETED TREATMENT AND IMAGING” (SIGNABLOK, INC., priority 2018, published 2021).
Residues, ends and D or L forms follow the SMILES beside them.

Key:
[1] = tested on: intratumoral macrophages (F4/80); assay: Immunohistochemistry of intratumoral macrophages (F4/80) in PC xenografts; assay type: in vivo, mouse; details: PC xenografts (shown for BxPC-3)
Description: All staining and quantification procedures were performed by HistoTox Laboratories. Briefly, mice containing AsPC-1, BxPC-3, and Capan-1 tumors were humanely euthanized for necropsy at the end of the study. Excised tumors were fixed using 10% neutral buffered formalin for 1-2 days, processed for paraffin embedding, and sectioned at […]. Antigen retrieval for F4/80 was achieved using Proteinase K (Dako North America). Sections were blocked for peroxidase and alkaline phosphatase activity using Dual Endogenous Enzyme Block (Dako North America). Sections were then incubated with Protein Block (Dako North America) followed by primary antibody F4/80 (1:2000, AbD Serotec) diluted using 1% bovine serum albumin in Tris-buffered saline. […] Quantitative analysis of intratumoral F4/80 staining was determined using Visiopharm software.
Mice containing BxPC-3 tumors were humanely euthanized for necropsy at the end of the study. […] Quantitative analysis of intratumoral F4/80 staining was determined using Visiopharm software.
Immunohistochemistry. All staining and quantification procedures were performed by HistoTox Labs. […] Quantitative analysis of intratumoral F4/80 staining was determined using Visiopharm software.

[2] = tested on: mice with oxygen-induced retinopathy (OIR); assay: oxygen-induced retinopathy (OIR) in mice; assay type: in vivo
From the text: The membrane was probed for TREM-1, reprobed for CSF1 and then for β-actin.

[3] = tested on: C57BL/6J neonatal mice with oxygen-induced retinopathy; assay: Oxygen-induced retinopathy (OIR): pathological retinal neovascularization; assay type: in vivo
Description: Litters of C57BL/6J (Jackson Laboratory, Bar Harbor, Me.) neonatal mice and nursing dams were exposed to a hyperoxia environment (75% oxygen) from postnatal day 7 (P7) to P12 and returned to normoxia until P17. The hyperoxia exposure causes degeneration of the immature retinal vessels. […] Beginning on P7, mice were treated until day P17 by daily i.p. injections of GF9, GF9-SLP, TREM-1/TRIOPEP-sSLP or vehicle (phosphate-buffered saline, pH 7.4; PBS). […] In another subset of experiments, rho B-labeled Gd-containing sSLP were used to confirm the ability of these targeted SLP to cross the BRB in other species (rats and rabbits). In another subset of experiments, neonatal mice and nursing dams were not subjected to a hyperoxia environment and reared in room air (RA). […]
Treatment effects on vaso-obliteration and pathological angiogenesis were assessed by morphometric analysis of the avascular and neovascularization areas in retinal flat mounts after labeling with isolectin B4 as described in Patel, et al. Am J Pathol 2014, 184:3040-3051. […] After washing 3 times with PBS, the images were captured with a 20× lens using a Zeiss Axioplan2 fluorescence microscope (Carl Zeiss Meditec, Inc., Dublin, Calif.). Intravitreal neovascular formation and avascular area were measured as described in Connor, et al. Nat Protoc 2009, 4:1565-1573. […]

[4] = tested on: human pancreatic cancer xenografts (cancer mice); details: mouse, in vivo
Description: Treatment persisted for 31, 29 and 29 days for mice containing AsPC-1, BxPC-3 and Capan-1 tumor xenografts, respectively. Mean tumor volumes are calculated and plotted. All results are expressed as the mean±SEM (n=6 mice per group). On the final day of treatment, tumor volumes were compared between the drug-treated and control groups. **, p<0.01; ***, p<0.001; ****, p<0.0001 (versus vehicle).

[5] = comparison of therapies (cancer indications); details: shown for cancer indications

CC(C)C[C@H](NC(=O)[C@H](Cc1ccccc1)NC(=O)CN)C(=O)N[C@@H](CO)C(=O)N[C@@H](CCCCN)C(=O)N[C@@H](CO)C(=O)N[C@@H](CC(C)C)C(=O)N[C@H](C(=O)N[C@@H](Cc1ccccc1)C(=O)NCC(=O)N[C@@H](CCC(=O)O)C(=O)N[C@@H](CCC(=O)O)C(=O)N[C@@H](CC[S+](C)[O-])C(=O)N[C@@H](CCCNC(=N)N)C(=O)N[C@@H](CC(=O)O)C(=O)N[C@@H](CCCNC(=N)N)C(=O)N[C@@H](C)C(=O)N[C@@H](CCCNC(=N)N)C(=O)N[C@@H](C)C(=O)N[C@@H](Cc1c[nH]cn1)C(=O)N[C@H](C(=O)O)C(C)C)C(C)C (stereo partly shown) [G-HV21] (HELM PEPTIDE1{G.F.L.S.K.S.L.V.F.G.E.E.[CS(=O)CC[C@H](N[*:1])C(=O)[*:2]].R.D.R.A.R.A.H.V}$$$$V2.0)
intratumoral macrophage content / infiltration (F4/80) [1]: reduces the macrophage infiltration into the tumor

CC(C)C[C@H](NC(=O)[C@H](Cc1ccccc1)NC(=O)CN)C(=O)N[C@@H](CO)C(=O)N[C@@H](CCCCN)C(=O)N[C@@H](CO)C(=O)N[C@@H](CC(C)C)C(=O)N[C@H](C(=O)N[C@@H](Cc1ccccc1)C(=O)N[C@@H](Cc1c[nH]c2ccccc12)C(=O)N[C@@H](CCC(N)=O)C(=O)N[C@@H](CCC(=O)O)C(=O)N[C@@H](CCC(=O)O)C(=O)N[C@@H](CC[S+](C)[O-])C(=O)N[C@@H](CCC(=O)O)C(=O)N[C@@H](CC(C)C)C(=O)N[C@@H](Cc1ccc(O)cc1)C(=O)N[C@@H](CCCNC(=N)N)C(=O)N[C@@H](CCC(N)=O)C(=O)N[C@@H](CCCCN)C(=O)N[C@H](C(=O)O)C(C)C)C(C)C (stereo partly shown) [G-KV21] (HELM PEPTIDE1{G.F.L.S.K.S.L.V.F.W.Q.E.E.[CS(=O)CC[C@H](N[*:1])C(=O)[*:2]].E.L.Y.R.Q.K.V}$$$$V2.0)
pathological retinal neovascularization (RNV) ([2]; 25 mg/kg GF9, 2.5 mg/kg GF9-sSLP, 4 mg/kg GA/E31-sSLP where stated): significantly suppresses pathological RNV | retinal tissue expression of TREM-1 and CSF-1 (M-CSF) ([2]; P17, Western blot): inhibits tissue expression of TREM-1 and M-CSF | reduction of pathological RNV ([3]; free peptides, daily i.p. P7-P17 at indicated doses): up to 95%

CC(C)C[C@H](NC(=O)[C@H](Cc1ccccc1)NC(=O)CN)C(=O)N[C@@H](CO)C(=O)N[C@@H](CCCCN)C(=O)N[C@@H](CO)C(=O)N[C@@H](CC(C)C)C(=O)N[C@H](C(=O)N[C@@H](Cc1ccccc1)C(=O)O)C(C)C [GF9] (H-GFLSKSLVF-OH)
tolerability in cancer mice [4]: Non-Toxic | Acute toxicity [5]: LOW | toxicity / tolerability in mouse litters ([3]; mouse, in vivo): non-toxic and well-tolerated in mouse litters
